Publication PMC6697623 (2019)

System: Corn wild type (RNA 1) (RNA, aptamer) GGCGCGAGGAAGGAGGUCUGAGGAGGUCACUGCGCC
Experiment: fluorescence titration, RNA varied
Settings: 100 mM KCl, 10 mM MgCl2; pH 7.5, 20 °C; 2.5 μM TO

In the case of CN1C(=Cc2cc[n+](C)c3ccccc23)Sc2ccccc21, the “apparent Kd” value is reported as 1400 nM.
